Patent US20090099062A1 (priority 2007, published 2009)
pEC50: −log10 of the molar value.

How the values were obtained:
Assay type in all cases: cell-based
[1] = system: Wnt-mediated gene transcription; assay: Topflash reporter assay in HEK 293 cells; details: Homo sapiens, HEK293; HEK 293 cells stimulated with Wnt3a, Topflash luciferase; read-out: EC50, inhibition of Wnt-mediated transcription
Experimental: Topflash reporter assay. HEK 293 cells stably expressing 8× Supertopflash were seeded in quadruplicate at 15,000 cells/well/100 μl of medium in 96 well-plate. […] Cells were lysed in passive lysis buffer (Promega), and luciferase was measured according to Promega's Steady-Glo protocol.

SW620 = assay: Cell viability (CellTiter-Glo), SW620; details: Homo sapiens, SW-620; SW620, 48 hr
Experimental: (§1) Cancer cell growth, viability, and apoptosis assays. HCT116, SW620, SW480, MDA-MB-231 cancer lines were maintained according to ATCC guidelines. For cell growth and viability assays, cells were seeded at 2000 cells/100 μl/well in 96-well plates. Cell number was measured at different time points using CellTiter-Glo® Luminescent Cell Viability Assay (Promega). For apoptosis assays, cells were seeded at 5000 cells/100 μl/well in 96-well plates. Drug was added for 24 hr and Caspase-3 and -7 activities were measured using Apo-ONE® Homogeneous Caspase-3/7 Assay (Promega).

SW480 = assay: Cell viability (CellTiter-Glo), SW480; details: Homo sapiens; SW480, 48 hr
Experimental: as §1

MDA-MB-231 = assay: Cell viability (CellTiter-Glo), MDA-MB-231; details: Homo sapiens; MDA-MB-231, 48 hr
Experimental: as §1

pEC50 [1]: > 7.30
pEC50 (SW620): > 7.30
pEC50 (SW480): > 7.30
pEC50 (MDA-MB-231): > 7.30
Structure (SMILES): Cc1cc(/C=C/c2ccc3cc(N(C)C)ccc3[n+]2C)c(C)n1-c1ccccc1 [pyrvinium, pyrvinium pamoate]
